Laboratory results: PMC11404848, “Stenotrophomonas maltophilia uses a c-di-GMP module to sense the mammalian body temperature during infection” (PLOS Pathogens, 2024)

Target: T1, BtsD^Δ(SP-GGDEF)
T1 construct: N-terminal region; signal peptide (1-42) and GGDEF domain (836-1008) deleted; borders derived from printed deletions; expressed in E. coli BL21(DE3), His6 tag kept or GST tag cut
Assay: MicroScale Thermophoresis
Format: binding, Stenotrophomonas maltophilia
Settings: PBS pH 6.5; protein labelled with Red NHS dye
Description: MicroScale Thermophoresis on BtsD^Δ(SP-GGDEF) | BtsD^Δ(SP-GGDEF) directly bound with c-di-GMP and Sensor^BtsK

Q: With `Nc1nc2c(ncn2[C@@H]2O[C@@H]3COP(=O)(O)O[C@H]4[C@@H](O)[C@H](n5cnc6c(=O)[nH]c(N)nc65)O[C@@H]4COP(=O)(O)O[C@H]3[C@H]2O)c(=O)[nH]1` [c-di-GMP] as the molecule, how does the Kd read?
A: 8.72 ± 4.12 µM
